One assay concerns the target T1, E. coli SPase (Escherichia coli, UniProt P00803).
T1 construct: Full length His-tagged E. coli and S. aureus SPase proteins were expressed in E. coli BL21; His tag; made in house; host or cells: E. coli BL21 (DE3)
Briefly: SPase enzyme inhibition assay, fluorogenic peptide substrate, E. coli. The class given is biochemical. The note with it: 3 nM E. coli SPase, 20 μM substrate, 10 minutes pre-incubation, room temperature; read-out: IC 50 (nM) E. coli. How it is done: (§1) Briefly, for expression of E. coli SPase, saturated overnight cultures grown in 20 ml of Luria-Bertani medium supplemented with ampicillin were subcultures into 1.5 L of Luria-Bertani, and shaken at 37° C. until an optical density at 600 nm of 0.4-0.5 was achieved. […] S. aureus SPase was expressed and purified similarly, with the following exceptions. […] Resin bound protein was washed in a similar buffer containing 1% Elugent in place of Triton X-100 prior to protein elution in wash buffer supplemented with 300 mM imidazole. […] All protein concentrations were determined by BCA assay.
(§2) Enzyme master solution was prepared by diluting Escherichia coli or Staphylococcus aureus SPase protein into reaction buffer to a final concentration of 3 nM or 10 nM respectively. Reaction buffer consisted of 20 mM NaKHPO4 pH 7.4, 100 mM NaCl, and 1% v/v Elugent™ detergent. Reactions were initiated by the addition of substrate to a final concentration of 20 μM. Reaction progress was monitored by measuring the increase in fluorescence signal (excitation at 314 nm, emission at 416 nm) using a SpectraMax M2 fluorescence microplate reader. […] Three-folder serial dilutions of test compounds, starting at 10 μM, were prepared in enzyme mix solution and incubated at room temperature for 10 minutes. Following this incubation, fluorogenic substrate was added to a final concentration of 20 μM and the increase in fluorescence, corresponding to substrate cleavage, was monitored continuously at room temperature for 1 hour. Initial reaction rates were calculated based on the rate of increase in fluorescence during the reaction. Reaction rates were plotted as a function of compound concentration, and IC50 values were determined nonlinear regression analysis (SoftMaxPro 5.4, Molecular Devices™) of the sigmoidal dose-response curve.

Assay [1] deals with Escherichia coli MC4100 harboring the IMP4213. The assay can be described thus: MIC by broth micro-dilution (CLSI), E. coli. The class given is cell-based. Conditions: E. coli MC4100 IMP4213 (increased outer-membrane permeability); cation adjusted Mueller Hinton Broth + 0.002% Tween-80; 35° C., 22 hours. How it is done: (§3) In vitro antimicrobial activity of each compound was determined by measuring minimal inhibitor concentrations (MICs) using the broth micro-dilution technique as approved by the Clinical and Laboratory Standards Institute (CLSI) (Methods for Dilution Antimicrobial Susceptibility Tests for Bacteria that Grow Aerobically; Approved Standard—Eighth Edition. CLSI document M07-A8. Wayne, Pa.: Clinical and Laboratroy Standards; 2009). Antibacterial activity was measure against two strains of bacteria: a Methicillin Resistant Staphylococcus aureus strain USA 300 (NRS384) and a strain of Escherichia coli MC4100 harboring the IMP4213, which results in increased outer-membrane permeability (B Martin and Silhavy T. Imp/OstA is required for cell envelope biogenesis in Escherichia coli. (2002) Molecular Microbiology, 45(5), 1289-1302). Cells were inoculated onto plates of Trypyticase Soy Agar or Luria Agar respectively and grown at 35° C. for 20 hours. Inocula suspensions were prepared by scraping cells into 1 ml of testing media (cation adjusted Mueller Hinton Broth supplemented with 0.002% v/v Tween-80) and diluting to a final OD600 nm of 0.01.
Test compounds were prepared in DMSO at a concentration of 10 mg/ml. […]
On the technique in general: Broth dilution looks for growth in wells or tubes with falling amounts of substance.

In assay [2] the test system is Methicillin Resistant Staphylococcus aureus strain USA 300 (NRS384). Briefly: MIC by broth micro-dilution (CLSI), S. aureus. The assay is classed as cell-based. Conditions: MRSA USA 300 (NRS384), cation adjusted Mueller Hinton Broth + 0.002% Tween-80, 35° C., 22 hours; for MIC: Staphylococcus aureus, MRSA / NRS 384 / USA300, read-out: MIC (μg/mL) S. aureus. How it is done:
as §3
Test compounds were prepared in DMSO at a concentration of 10 mg/ml. These compound stocks were diluted into testing media at a concentration of 64 μg/ml and serial 2-fold dilutions were made in the same media, in 96-well U bottom microtiter dishes, for a total of 10 compound concentrations. Inocula suspensions were added to the 2-fold serial dilutions of test compounds to a final density of OD OD600 nm of 0.0005 and incubated at 35° C. for 22 hours.

A further assay has as its target T2, S. aureus SPase (Staphylococcus aureus, UniProt P0A070).
T2 construct: Full length His-tagged E. coli and S. aureus SPase proteins were expressed in E. coli BL21; His tag; made in house; host or cells: E. coli BL21 (DE3)
T2 sequence (P0A070 1-191): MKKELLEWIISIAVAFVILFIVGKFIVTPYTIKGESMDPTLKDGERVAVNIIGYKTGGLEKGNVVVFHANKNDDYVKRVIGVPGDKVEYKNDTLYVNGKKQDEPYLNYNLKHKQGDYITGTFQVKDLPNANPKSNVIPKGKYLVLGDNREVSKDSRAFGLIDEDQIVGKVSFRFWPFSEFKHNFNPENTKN
The assay can be described thus: SPase enzyme inhibition assay, fluorogenic peptide substrate, S. aureus. The class given is biochemical. How it is done: as §1, §2

Where two headings read alike, the source gives them in different places. Where only a bound is given, the exact number is not on record here.

T1 sequence (P00803 whole entry): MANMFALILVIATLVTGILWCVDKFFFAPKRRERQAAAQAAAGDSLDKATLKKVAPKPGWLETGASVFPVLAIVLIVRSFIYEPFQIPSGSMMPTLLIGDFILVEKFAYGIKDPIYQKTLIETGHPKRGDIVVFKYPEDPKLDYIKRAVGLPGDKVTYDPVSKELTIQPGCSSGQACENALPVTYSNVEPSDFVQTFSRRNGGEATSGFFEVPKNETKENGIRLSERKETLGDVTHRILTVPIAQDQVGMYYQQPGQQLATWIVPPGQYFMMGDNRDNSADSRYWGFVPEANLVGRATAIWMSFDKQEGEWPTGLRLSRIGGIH

With `CCCCc1ccc(-c2ccc(C(=O)NCC(C)C(=O)N[C@@H](CCN)C(=O)N(C)[C@@H]3C(=O)N[C@@H](C)C(=O)N[C@H](C(=O)O)Cc4ccc(O)c(c4)-c4cc3ccc4O)cc2)cc1` (single isomer, unassigned) [Compound 115], the IC50 came to 630 nM on E. coli SPase and 1900 nM on S. aureus SPase (10 nM S. aureus SPase, 20 μM substrate, 10 minutes pre-incubation, room temperature, read-out: IC 50 (nM) S. aureus). Also, in assay [1], the “MIC (μg/mL) E. coli” value was greater than 64 µg/mL. Also, the “MIC (μg/mL) S. aureus” value in assay [2] worked out at 64 µg/mL.
On to `CCCCc1ccc(-c2ccc(C(=O)N[C@@H](CCCCN)C(=O)N[C@H]3COCCCCOCC[C@@H](C(=O)N[C@@H](C)B4O[C@@H]5C[C@@H]6C[C@@H](C6(C)C)[C@]5(C)O4)NC(=O)[C@H](C)NC3=O)cc2)cc1` [Compound 207], for which the IC50 on E. coli SPase worked out at 21 nM; against S. aureus SPase, 210 nM. The MIC in assay [2] amounted to 1.3 µg/mL.
Consider `CCCCc1ccc(-c2ccc(C(=O)NC[C@@H](N)C(=O)N[C@@H](CCCCN)C(=O)N(C)[C@@H]3C(=O)N[C@@H](C)C(=O)N[C@H](C(=O)O)Cc4ccc(O)c(c4)-c4cc3ccc4O)cc2)cc1` [Compound 109], for which the IC50 on E. coli SPase was 11 nM; on S. aureus SPase, 15 nM. Further, in assay [2], the MIC is greater than 64 µg/mL.
For `CCCCc1ccc(-c2ccc(C(=O)N[C@@H](C)CC(=O)N[C@@H](CCCCN)C(=O)N(C)[C@@H]3C(=O)N[C@@H](C)C(=O)N[C@H](C(=O)O)Cc4ccc(O)c(c4)-c4cc3ccc4O)cc2)cc1` [Compound 107] the same measures were 0.6 nM, 2.6 nM and 11 µg/mL.
For `CCCCCCCC(=O)N[C@@H](CCCCN)C(=O)N(C)[C@@H]1C(=O)N[C@@H](C)C(=O)N[C@H](C(=O)N[C@@H](C)B2O[C@@H]3C[C@@H]4C[C@@H](C4(C)C)[C@]3(C)O2)Cc2ccc(O)c(c2)-c2cc1ccc2O` [Compound 125] the same measures were 26 nM, 64 nM and 23 µg/mL.
For `CCCCc1ccc(-c2ccc(C(=O)NCC(C)C(=O)N[C@@H](CCN)C(=O)N(C)[C@@H]3C(=O)N[C@@H](C)C(=O)N[C@H](C(=O)O)Cc4ccc(O)c(c4)-c4cc3ccc4O)cc2)cc1` (single isomer, unassigned) [Compound 114] the same measures were 730 nM, 2200 nM and 64 µg/mL.
Take `CCCCc1ccc(-c2ccc(C(=O)N[C@@H](CCCCN)C(=O)N[C@H]3COCCCCC[C@@H](C(=O)N[C@@H](C)B4OC5C[C@@H]6C[C@@H](C6(C)C)[C@]5(C)O4)NC(=O)[C@H](C)NC3=O)cc2)cc1` (stereo partly shown) [Compound 204]: the IC50 on E. coli SPase was 25 nM; at S. aureus SPase (read-out: IC 50 (nM) S. aureus, 10 nM S. aureus SPase, 20 μM substrate, 10 minutes pre-incubation, room temperature) it was 250 nM. The MIC in assay [2] worked out at 1.4 µg/mL.
For the compound `CCCCc1ccc(-c2ccc(C(=O)NC[C@@H](C)C(=O)N[C@@H](CCCCN)C(=O)N(C)[C@@H]3C(=O)N[C@@H](C)C(=O)N[C@H](C(=O)O)Cc4ccc(O)c(c4)-c4cc3ccc4O)cc2)cc1` [Compound 103], the IC50 at E. coli SPase amounted to 1.3 nM; at S. aureus SPase, 8 nM. Further, the MIC in assay [2] turned out to be 2.1 µg/mL.
The corresponding values for `CCCCc1ccc(-c2ccc(C(=O)NCC(=O)N[C@@H](CCCCN)C(=O)N(C)[C@@H]3C(=O)N[C@@H](C)C(=O)N[C@H](C(=O)O)Cc4ccc(O)c(c4)-c4cc3ccc4O)cc2)cc1` [Compound 108] are 2.4 nM, 110 nM and 8 µg/mL.
The corresponding values for `CCCCc1ccc(-c2ccc(C(=O)N[C@H](C)C(=O)N[C@@H](CCCCN)C(=O)N(C)[C@@H]3C(=O)N[C@@H](C)C(=O)N[C@H](C(=O)O)Cc4ccc(O)c(c4)-c4cc3ccc4O)cc2)cc1` [Compound 102] are 11 nM, 280 nM and 10 µg/mL.
For `CCCCc1ccc(-c2ccc(C(=O)NCC(C)C(=O)N[C@@H](CCCCN)C(=O)N(C)[C@@H]3C(=O)N[C@@H](C)C(=O)N[C@H](C(=O)O)Cc4ccc(O)c(c4)-c4cc3ccc4O)cc2)cc1` (mixture of isomers) [Compound 104], the results for the IC50 at E. coli SPase and against S. aureus SPase were 3.7 nM and 12 nM, respectively. Also, the MIC in assay [2] was 4 µg/mL.
On to `CCCCc1ccc(-c2ccc(C(=O)NCC(C)C(=O)N[C@@H](CCCN)C(=O)N(C)[C@@H]3C(=O)N[C@@H](C)C(=O)N[C@H](C(=O)O)Cc4ccc(O)c(c4)-c4cc3ccc4O)cc2)cc1` (stereo partly shown) [Compound 113], for which the values for the IC50 on E. coli SPase and against S. aureus SPase were 3.6 nM and 69 nM, respectively. In addition, in assay [2], the MIC stood at 4 µg/mL.
